The values below are quoted from earlier work in article PMC10783161 (RSC Advances, 2024).

Molecules are shown by their SMILES.

The conditions of this series: biphasic elimination, slower terminal phase.

Consider `COc1cc([C@@H]2c3cc4c(cc3[C@@H](O[C@@H]3O[C@@H]5CO[C@@H](C)O[C@H]5[C@H](O)[C@H]3O)[C@H]3COC(=O)[C@H]23)OCO4)cc(OC)c1O` [ETP, etoposide], for which the terminal phase half-life was 4 to 11 h.
